Source: DBAASP
In brackets after ≈: the same amount, converted by molar mass.

Experiments:
Assay in all cases: ≥ marks a high value that may be exact or a test limit, other limits are often not marked, values filed in µg/mL are converted to µM
[1] = test system: Aeromonas salmonicida
[2] = test system: Shigella flexneri ATCC 12022
[3] = test system: Staphylococcus aureus
[4] = test system: Enterococcus faecalis ATCC 29212
[5] = test system: Streptococcus iniae 00-1425
[6] = test system: Vibrio anguillarum ATCC 19264
[7] = test system: Aeromonas hydrophila
[8] = test system: Vibrio alginolyticus
[9] = test system: Lactococcus garvieae
[10] = test system: Shigella flexneri
[11] = test system: Streptococcus iniae
[12] = test system: Escherichia coli ATCC 25922
[13] = test system: Lactococcus garvieae 00-1422
[14] = test system: Aeromonas salmonicida NCTC 7812
[15] = test system: Enterococcus faecalis
[16] = test system: Escherichia coli
[17] = test system: Pseudomonas aeruginosa
[18] = test system: Klebsiella pneumoniae
[19] = test system: Pseudomonas aeruginosa KCTC 1637
[20] = test system: Escherichia coli KCTC 1682
[21] = test system: Candida albicans TIMM 1768
[22] = test system: Staphylococcus aureus KCTC 1621
[23] = test system: Aspergillus fumigatus KCTC 4165
[24] = test system: Streptococcus pyogenes KCTC 3096
[25] = test system: Salmonella typhimurium KCTC 1926
[26] = test system: Bacillus subtilis KCTC 1918
[27] = test system: Escherichia coli D31
[28] = test system: Escherichia coli D22
[29] = test system: Salmonella typhimurium
[30] = test system: Escherichia coli 1106
[31] = test system: Pseudoalteromonas carrageenovora ATCC 43555
[32] = test system: Bacillus megaterium
[33] = test system: Pseudomonas alginovora
[34] = test system: Micrococcus luteus
[35] = test system: Aerococcus viridans
[36] = test system: Escherichia coli SPE 001
[37] = test system: Staphylococcus aureus SPM 101
[38] = test system: Staphylococcus aureus SR1550
[39] = test system: Staphylococcus aureus NBRC 100910
[40] = test system: Staphylococcus aureus ATCC 6538P
[41] = test system: Candida albicans NBRC 1385
[42] = test system: Escherichia coli W3110
[43] = test system: Escherichia coli K-12 594

Question: With `CC[C@H](C)[C@H](NC(=O)CNC(=O)[C@H](CCCN=C(N)N)NC(=O)[C@H](Cc1ccccc1)NC(=O)[C@@H](NC(=O)[C@H](Cc1cnc[nH]1)NC(=O)[C@H](Cc1cnc[nH]1)NC(=O)[C@@H](NC(=O)[C@@H](N)Cc1ccccc1)[C@@H](C)CC)[C@@H](C)CC)C(=O)N[C@H](C(=O)N[C@@H](Cc1cnc[nH]1)C(=O)N[C@@H](C)C(=O)NCC(=O)N[C@@H](CCCN=C(N)N)C(=O)N[C@@H](CO)C(=O)N[C@H](C(=O)NCC(=O)N[C@@H](CCCN=C(N)N)C(=O)N[C@@H](Cc1ccccc1)C(=O)N[C@@H](CC(C)C)C(=O)N[C@H](C(=O)NCC(=O)O)[C@@H](C)O)[C@@H](C)CC)C(C)C` [FIHHIFRGIVHAGRSIGRFLTG] as the compound, how does the MIC [1] read?
Answer: 5.02 µM (≈ 12.5 µg/mL)

Question: And the MIC [2]?
Answer: 20.1 µM (≈ 50 µg/mL)

Question: And the MIC [3]?
Answer: 1.24 µM (≈ 3.1 µg/mL)

Question: And the MIC [4]?
Answer: 1.26 µM (≈ 3.14 µg/mL)

Question: And the MIC [5]?
Answer: 2.51 µM (≈ 6.25 µg/mL)

Question: What about the MIC [6] of the same compound?
Answer: 3.55 µM (≈ 8.85 µg/mL)

Question: And the MIC [7]?
Answer: 0.642 µM (≈ 1.6 µg/mL)

Question: And the MIC [8]?
Answer: 2.53 µM (≈ 6.3 µg/mL)

Question: What about the MIC [9] of the same compound?
Answer: 1.77 µM (≈ 4.42 µg/mL)

Question: What about the MIC [10] of the same compound?
Answer: 2.53 µM (≈ 6.3 µg/mL)

Question: And the MIC [11]?
Answer: 1.24 µM (≈ 3.1 µg/mL)

Question: What about the MIC [12] of the same compound?
Answer: 80.3 µM (≈ 200 µg/mL)

Question: What about the MIC [13] of the same compound?
Answer: 20.1 µM (≈ 50 µg/mL)

Question: What about the MIC [14] of the same compound?
Answer: ≥ 80.3 µM

Question: And the MIC [15]?
Answer: 5.02 µM (≈ 12.5 µg/mL)

Question: What about the MIC [16] of the same compound?
Answer: 1.24 µM (≈ 3.1 µg/mL)

Question: And the MIC [17]?
Answer: 10 µM (≈ 25 µg/mL)

Question: What about the MIC [18] of the same compound?
Answer: 2.53 µM (≈ 6.3 µg/mL)

Question: Which results are given for `CCC(C)C(NC(=O)C(CCCCN)NC(=O)C(CCCCN)NC(=O)C(CC(C)C)NC(=O)C(CCCCN)NC(=O)C(CCC(=O)O)NC(=O)CN)C(=O)NCC(=O)NC(CCC(N)=O)C(=O)NC(CCCCN)C(=O)NC(C(=O)NC(CCCCN)C(=O)NC(CC(N)=O)C(=O)NC(Cc1ccccc1)C(=O)NC(Cc1ccccc1)C(=O)NC(CCC(N)=O)C(=O)NC(CCCCN)C(=O)NC(CC(C)C)C(=O)O)C(C)CC` (stereo not given) [GEKLKKIGQKIKNFFQKL]?
Answer: MIC [19]: 12.5 µM (≈ 26.8 µg/mL); MIC [20]: ≥ 50 µM; MIC [21]: ≥ 50 µM; MIC [22]: ≥ 50 µM; MIC [23]: ≥ 100 µM; MIC [24]: ≥ 50 µM; MIC [25]: 12.5 µM (≈ 26.8 µg/mL); MIC [26]: ≥ 50 µM

Question: Which results are given for `CC[C@H](C)[C@H](NC(=O)CN)C(=O)NCC(=O)N[C@@H](CCCCN)C(=O)N[C@@H](Cc1ccccc1)C(=O)N[C@@H](CC(C)C)C(=O)N[C@@H](CCCCN)C(=O)N[C@@H](CCCCN)C(=O)N[C@@H](C)C(=O)N[C@@H](CCCCN)C(=O)N[C@@H](CCCCN)C(=O)N[C@@H](Cc1ccccc1)C(=O)NCC(=O)N[C@@H](CCCCN)C(=O)N[C@@H](C)C(=O)N[C@@H](Cc1ccccc1)C(=O)N[C@H](C(=O)N[C@@H](CCCCN)C(=O)N[C@@H](CCSC)C(=O)N[C@@H](CCCCN)C(=O)N[C@@H](CCCCN)C(N)=O)C(C)C` [GIGKFLKKAKKFGKAFVKMKK]?
Answer: MIC [27]: 1.41 µM (≈ 3.37 µg/mL); MIC [3]: 1.41 µM (≈ 3.37 µg/mL); MIC [28]: 1.41 µM (≈ 3.37 µg/mL); MIC [29]: 2.83 µM (≈ 6.74 µg/mL); MIC [30]: 1.41 µM (≈ 3.37 µg/mL); MIC [31]: 7.07 µM (≈ 16.8 µg/mL); MIC [32]: 0.707 µM (≈ 1.68 µg/mL); MIC [15]: 12.6 µM (≈ 30.1 µg/mL); MIC [33]: 14.1 µM (≈ 33.7 µg/mL); MIC [34]: 0.707 µM (≈ 1.68 µg/mL); MIC [35]: 0.707 µM (≈ 1.68 µg/mL)

Question: For `CC(C)C[C@H](NC(=O)[C@H](CCCCN)NC(=O)[C@H](CC(C)C)NC(=O)[C@H](CC(C)C)NC(=O)[C@H](CC(C)C)NC(=O)[C@H](CC(C)C)NC(=O)[C@H](CC(C)C)NC(=O)[C@H](CCCCN)NC(=O)[C@H](CC(C)C)NC(=O)[C@@H](N)CCCCN)C(=O)N[C@@H](CCCCN)C(N)=O` [KLKLLLLLKLK], which MIC [36] is on record?
Answer: 12.1 µM (≈ 16 µg/mL)

Question: And the MIC [37]?
Answer: 0.378 µM (≈ 0.5 µg/mL)

Question: And the MIC [38]?
Answer: 22.7 µM (≈ 30 µg/mL)

Question: And the MIC [39]?
Answer: 12.1 µM (≈ 16 µg/mL)

Question: What about the MIC [40] of the same compound?
Answer: 1.51 µM (≈ 2 µg/mL)

Question: And the MIC [41]?
Answer: ≥ 48.4 µM

Question: And the MIC [42]?
Answer: 12.1 µM (≈ 16 µg/mL)

Question: And the MIC [43]?
Answer: 15.1 µM (≈ 20 µg/mL)
